Values of other authors, collected in US20110287113A1, “TREATMENT OF PSORIASIS” (Insense Limited, priority 2009, published 2011).

Experiments:
[1] = under normal conditions
[2] = under normal conditions; remark: listed apart in the source
[3] = at 25° C.

Compound | time to total (100%) decomposition [2] | further results
[N]=O [NO, nitric oxide] |  | maximum solubility in water [1]: approximately 1.7 mM
N[C@@H](CSN=O)C(=O)O [S-nitrosocysteine] | within minutes | 
N[C@@H](CCC(=O)N[C@@H](CSN=O)C(=O)NCC(=O)O)C(=O)O [S-nitrosoglutathione] | hours/days | 
O=NO [nitrite] |  | pKa [3]: 3.4
